According to patent US20250360134A1, “6-6 OR 5-6 FUSED BICYCLIC COMPOUNDS COMPRISING A PYRI(MI)DINE RING USEFUL IN THE|TREATMENT OF INFECTIOUS DISEASES” (INSTITUT NATIONAL DE LA SANTE ET DE LA RECHERCHE MEDICALE …, priority 2020, published 2025):
Counter-ions that a name gives are not always drawn. Like-named read-outs stand apart in the source and are kept apart here.

Key:
Plasmodium falciparum W2 = assay: In vitro antiplasmodial activity, SYBR Green I, strain W2; conditions: Plasmodium falciparum, W2, 48 h, read-out: IC50 Plasmodium falciparum W2, chloroquine-resistant strain W2, 48-hour incubation
Protocol: (§1) The in vitro antiplasmodial activities were tested over concentrations ranging from 39 to 40 μm against culture-adapted Plasmodium falciparum: reference strains 3D7 and W2. […] The parasites were cultivated in RPMI medium (Sigma-Aldrich, Lyon, France) supplemented with 0.5% Albumax I (Life Technologies Corporation, Paisley, UK), hypoxanthine (Sigma-Aldrich), and gentamicin (Sigma-Aldrich) with human erythrocytes and were incubated at 37° C. in a candle jar, as described in Desjardins R E et al., Antimicrob Agents Chemother, 1979; 16:710-18.
(§2) The P. falciparum drug susceptibility test was carried out in 96-well flat bottom sterile plates in a final volume of 250 μL. After a 48-hour incubation with the drugs, quantities of DNA in treated and control cultures of parasites in human erythrocytes were quantified using the SYBR Green I (Sigma-Aldrich) fluorescence-based method as described in Bennett T N et al, Antimicrob Agents Chemother, 2004; 48:1807-10. Briefly, after incubation, plates were frozen at −20° C. until use. Plates were then thawed for 2 hours at room temperature, and 100 μL of each homogenized culture was transferred to a well of a 96-well flat bottom sterile black plate (Nunc, Inc., Rochester, NY) that contained 100 μL of the SYBR Green I lysis buffer (2×SYBR Green, 20 mM Tris base pH 7.5, 5 mM EDTA, 0.008% w/v saponin, 0.08% w/v Triton X-100). […] Plates were incubated for 1 hour at room temperature and then read on a fluorescence plate reader (Tecan, Grödig, Austria) using excitation and emission wavelengths of 485 and 535 nm, respectively. Concentrations inhibiting 50% of the parasite's growth (half maximal inhibitory concentration or IC50 values) were then calculated from the obtained experimental results by non-linear regression analysis of data from dose-response curves, using TableCurve 2D version 5.0 software (Systat Software, San Jose, CA). IC50 values are reported as means calculated from three independent experiments, as described in H. Kaddouri et al., Antimicrob.

[1] = test system: Plasmodium falciparum 3D7; assay: In vitro antiplasmodial activity, SYBR Green I, strain 3D7; conditions: Plasmodium falciparum, 3D7, 48 h, read-out: IC50 Plasmodium falciparum 3D7, chloroquine-sensitive strain 3D7, 48-hour incubation
Protocol: as §1, §2

[2] = test system: human telomeric sequence F21T; assay: FRET-melting, F21T; conditions: K+ condition, 2 μM compound, 0.2 μM oligonucleotide
[3] = test system: human duplex sequence FdxT; assay: FRET-melting, FdxT; conditions: duplex control, K+ condition, 2 μM compound, 0.2 μM oligonucleotide
[4] = test system: T. brucei brucei AnTat 1.9; assay: In vitro antitrypanosomal activity, Alamar Blue assay; format: cell-based, Trypanosoma brucei brucei; conditions: Trypanosoma brucei, read-out: IC50 T. brucei brucei
Protocol: The effects of the tested compounds on the growth of T. brucei brucei were assessed using an Alamar Blue® assay described in B. Raz et al., Acta Trop. 1997, 68, 139. T. brucei brucei AnTat 1.9 (IMTA, Antwerpen, Belgium) was cultured in MEM with Earle's salts, supplemented according to the protocol disclosed in T. Baltz et al., EMBO J. 1985, 4, 1273, with the following modifications: 0.5 mM mercaptoethanol (Sigma-Aldrich), 1.5 mM 1-cysteine (Sigma-Aldrich), 0.05 mM bathocuproine sulfate (Sigma-Aldrich), and 20% heat-inactivated horse serum (Gibco, France) at 37° C. and 5% CO2. Samples were incubated at an average density of 2000 parasites/well in sterile 96-well plates (Fisher, France) with various concentrations of compounds dissolved in 0.9% NaCl. All doses were tested in duplicate. Appropriate controls treated with solvents 0.9% NaCl or DMSO or with suramin, pentamidine, eflornithine, and fexinidazole (reference drugs purchased from Sigma-Aldrich and Fluorochem, UK) were added to each set of experiments. After a 69-hour incubation at 37° C., 10 μl of the viability marker Alamar Blue (Fisher) was added to each well, and the plates were incubated for 5 hour. The plates were read in a PerkinElmer ENSPIRE (Germany) microplate reader using an excitation wavelength of 530 nm and an emission wavelength of 590 nm. The IC50 was defined as the concentration of drug necessary to inhibit by 50% the activity of T. brucei brucei compared to the control. IC50 values were calculated using a non-linear regression analysis of dose-response curves performed using GraphPad Prism software (USA). IC50 values were calculated from three independent experiments.

[5] = Cytotoxicity evaluation, MTT; format: cell-based, human; conditions: HepG2 cells (hepatocarcinoma-derived, ATCC HB-8065); human HepG2 cells, 72 hours, MTT
Protocol: The aim of this assay was to evaluate the impact of metabolic activation of the tested compounds on cell viability.
A cytotoxicity evaluation was performed using the method reported in Emami S A et al., Iran J Basic Med Sci 2012; 15:807-11 to determine the cytotoxic concentrations 50% (CC50) and using doxorubicin as a cytotoxic reference compound. These assays were performed in human HepG2 cells. HepG2 cells were purchased from ATCC (ref HB-8065). These cells are a commonly used human hepatocarcinoma-derived cell line that has characteristics similar to those of primary hepatocytes. These cells express many hepatocyte-specific metabolic enzymes, thus enabling the cytotoxicity of tested product metabolites to be evaluated. Briefly, cells in 100 μl of complete RPMI medium [RPMI supplemented with 10% FCS, 1% 1-glutamine (200 mM), penicillin (100 U/ml), and streptomycin (100 μg/ml)] were inoculated into each well of 96-well plates and incubated at 37° C. in a humidified chamber in 6% CO2. After 24 hours, 100 μl of medium with test compound at various concentrations dissolved in DMSO (final concentration less than 0.5% v/v) was added, and the plates were incubated for 72 hours at 37° C. Duplicate assays were performed for each sample. Each well was microscopically examined for precipitate formation before the medium was aspirated from the wells. After aspiration, 100 μl of MTT solution (0.5 mg/ml in medium without FCS) were then added to each well. Cells were incubated for 2 hours at 37° C. MTT solution was removed, and DMSO (100 μl) was added to dissolve the resulting blue formazan crystals. Plates were shaken vigorously (300 rpm) for 5 min. The absorbance was measured at 570 nm with 630 nm as reference wavelength in a BIO-TEK ELx808 Absorbance Microplate Reader. DMSO was used as blank and doxorubicin (Sigma-Aldrich) as positive control. Cell viability was calculated as percentage of control (cells incubated without compound).

[6] = test system: Trypanosoma 9 and 11 chromosomic sequence FTrypBT; assay: FRET-melting, FTrypBT; conditions: K+ condition, 2 μM compound, 0.2 μM oligonucleotide
[7] = test system: Plasmodium telomeric sequence FPf8T; assay: FRET-melting, FPf8T; conditions: K+ condition, 2 μM compound, 0.2 μM oligonucleotide
[8] = test system: Plasmodium telomeric sequence FPf1T; assay: FRET-melting, FPf1T; conditions: K+ condition, 2 μM compound, 0.2 μM oligonucleotide
[9] = 69-hour incubation, Alamar Blue

Structure (SMILES)	IC50 (Plasmodium falciparum W2) [nM]	IC50 [1] [nM]	FRET-melting values in K+ conditions at 2 μM ΔTm F21T [2] [°C]	FRET-melting values in K+ conditions at 2 μM ΔTm FdxT [3] [°C]	IC50 ([4]; 69 h) [nM]	IC50 at 72 h [5] [nM]	FRET-melting values in K+ conditions at 2 μM ΔTm FtryBT [6] [°C]	FRET-melting values in K+ conditions at 2 μM ΔTm FPf8T [7] [°C]	FRET-melting values in K+ conditions at 2 μM ΔTm FPf1T [8] [°C]	IC50 [4, 9] [nM]
CN(C)CCCNCc1ccc(-c2nc(Cl)nc3[nH]ccc23)cc1 [Compound 15B, 2-Chloro-4-{4-[(3-dimethylaminopropyl)aminomethyl]phenyl}-7H-pyrrolo[2,3-d]pyrimidine oxalate]	15200 ± 2080	10300 ± 220	0.3	0.1	510 ± 70	23700	–	–	–	–
CN1CCN(CCCNCc2ccc(-c3nc(-c4ccc(CNCCCN5CCN(C)CC5)cc4)c4ccn(C)c4n3)cc2)CC1 [Compound 9B, 2,4-bis{4-[(3-(4-methylpiperazin-1-yl)propyl)aminomethyl]phenyl}-7-methyl-7H-pyrrolo[2,3-d]pyrimidine oxalate]	130 ± 50	17800 ± 3490	10.4	0.0	1000 ± 100	39500	8.4	10.1	10.1	–
CN(C)CCCNCc1ccc(-c2nc(-c3ccc(CNCCCN(C)C)s3)nc3c2ccn3-c2ccccc2)cc1 [Compound 7B, 4-{4-[(3-Dimethylaminopropyl)aminomethyl]phenyl}-2-{5-[(3-dimethylaminopropyl)aminomethyl]thien-2-yl}-7-phenyl-7H-pyrrolo[2,3-d]pyrimidine oxalate]	2390 ± 80	880 ± 240	13.8	−0.3	630 ± 70	1910	10.5	12.8	11.5	–
CN(C)CCCNCc1ccc(-c2nc(-c3ccc(CNCCCN(C)C)cc3)c3sccc3n2)cc1 [Compound 29B, 2,4-Bis{4-[(4-dimethylaminopropyl)aminomethyl]phenyl}thieno[3,2-d]pyrimidine oxalate]	2170 ± 410	1370 ± 240	19.0	1.8	–	3190	17.1	20.9	20.1	140 ± 20
CN(C)CCCNCc1ccc(-c2nc(-c3ccc(CNCCCN(C)C)cc3)c3ccsc3n2)cc1 [Compound 26B, 2,4-Bis{4-[(4-dimethylaminopropyl)aminomethyl]phenyl}thieno[2,3-d]pyrimidine oxalate]	9950 ± 1470	4460 ± 350	14.1	0.3	–	2790	8.6	13.2	11.2	460 ± 40
CN(C)CCCNCc1ccc(-c2nc(NCCCN(C)C)nc3ccsc23)cc1 [Compound 31B, 2-(3-Dimethylaminopropylamino)-4-{4-[(4-dimethylaminopropyl)aminomethyl]phenyl}thieno[3,2-d]pyrimidine oxalate]	5690 ± 1210	40 ± 10	2.0	−0.7	–	> 60000	1.8	2.9	1.8	2580 ± 210
CN1CCN(CCCNCc2ccc(-c3nc(Cl)nc4[nH]ccc34)cc2)CC1 [Compound 16B, 2-Chloro-4-{4-[(3-(4-methylpiperazin-1-yl)propyl)aminomethyl]phenyl}-7H-pyrrolo[2,3-d]pyrimidine oxalate]	25900 ± 4630	10500 ± 230	0.8	0.1	1340 ± 250	63500	–	–	–	–
CN(C)CCCNCc1ccc(-c2nc(Cl)nc3c2ccn3-c2ccccc2)cc1 [Compound 17B, 2-Chloro-4-{4-[(3-dimethylaminopropyl)aminomethyl]phenyl}-7-phenyl-7H-pyrrolo[2,3-d]pyrimidine oxalate]	290 ± 40	1010 ± 410	–	−0.2	20	2870	–	–	–	–
CN(C)CCCNCc1ccc(-c2nc(NCCCN(C)C)nc3sccc23)cc1 [Compound 28B, 2-(3-Dimethylaminopropylamino)-4-{4-[(4-dimethylaminopropyl)aminomethyl]phenyl}thieno[2,3-d]pyrimidine oxalate]	11500 ± 2470	30	2.41	−0.77	–	35200	–	–	–	1100 ± 260
CN(C)CCCNCc1ccc(-c2nc(Cl)nc3c2ccn3-c2ccccc2)s1 [Compound 19B, 2-Chloro-4-{5-[(3-dimethylaminopropyl)aminomethyl]thien-2-yl}-7-phenyl-7H-pyrrolo[2,3-d]pyrimidine oxalate]	4560 ± 560	1970 ± 360	6.2	−1.8	50 ± 10	1880	–	–	–	–
CN1CCN(CCCNCc2ccc(-c3nc(-c4ccc(CNCCCN5CCN(C)CC5)cc4)c4ccn(-c5ccccc5)c4n3)cc2)CC1 [Compound 2B, 2,4-bis{4-[(3-(4-methylpiperazin-1-yl)propyl)aminomethyl]phenyl}-7-phenyl-7H-pyrrolo[2,3-d]pyrimidine oxalate]	1010 ± 160	–	19.6	0.7	880 ± 70	1080	17.3	20.0	19.1	–
COC(=O)C(CCCCNCc1ccc(-c2nc(-c3ccc(CNCCCCC(NC(=O)OC(C)(C)C)C(=O)OC)cc3)c3ccn(C)c3n2)cc1)NC(=O)OC(C)(C)C (stereo not drawn) [Compound 10B, 2,4-Bis{4-[(5-(tert-butoxycarbonylamino)-5-methoxycarbonyl)pentyl)aminomethyl]phenyl}-7-methyl-7H-pyrrolo[2,3-d]pyrimidine oxalate]	4360 ± 1700	610 ± 240	11.8	−1.0	–	–	8.9	11.0	10.1	7050 ± 660
